What was measured:
[1] = system: human esophageal epithelial cell SHEE; experiment: MTT assay, toxicity against normal cells; assay type: cell-based; settings: MTT, normal human esophageal epithelial cells, mean ± SD, read-out: IC50 SHEE
Procedure: Cells were seeded in 96-well plates with densities of 2,200–2,500 cells/well in 100 μL. One day after seeding, the concentration of the test compounds between 0 and 50 μM, 0.1% DMSO was added to cells as control. Approximately 2200-2500 transfected cells in 100 μL were incubated in quintuplicate in 96-well plates. After 48 h, MTT was added and incubated in the plate for 1–4 h in the incubator.

[2] = system: KYSE410 cells; experiment: MTT assay for cell proliferation and cytotoxicity; assay type: cell-based; settings: Homo sapiens, KYSE-410; MTT, 48 h, mean ± SD; read-out: IC50 KYSE410
Procedure: (§1) The compounds were dissolved in DMSO to make a 50 mM stock solution and were diluted to the concentration of working solutions with the complete growth medium before administration.
(§2) Cells were seeded in 96-well plates with densities of 2,200–2,500 cells/well in 100 μL. One day after seeding, the concentration of the test compounds between 0 and 50 μM, 0.1% DMSO was added to cells as control. […] After 48 h, MTT was added and incubated in the plate for 1–4 h in the incubator.

[3] = system: KYSE450 cells; experiment: MTT assay for cell proliferation and cytotoxicity; assay type: cell-based; settings: Homo sapiens, KYSE-450; MTT, 48 h, mean ± SD; read-out: IC50 KYSE450
Procedure: as §1, §2

[4] = system: HCC827 cells; experiment: MTT assay for cell proliferation and cytotoxicity; assay type: cell-based; settings: Homo sapiens, 48 h, mean ± SD
Procedure: as §1, §2

[5] = system: H1650 cells; experiment: MTT assay for cell proliferation and cytotoxicity; assay type: cell-based; settings: Homo sapiens, NCI-H1650; MTT, 48 h, mean ± SD; read-out: IC50 H1650
Procedure: as §1, §2

[6] = system: KYSE70 cells; experiment: MTT assay for cell proliferation and cytotoxicity; assay type: cell-based; settings: Homo sapiens, KYSE-70; MTT, 48 h, mean ± SD; read-out: IC50 KYSE70
Procedure: as §1, §2

SMILES	melting point [°C]	IC50 [1] [µM]	IC50 [2] [µM]	IC50 [3] [µM]	IC50 [4] [µM]	IC50 [5] [µM]	IC50 [6] [µM]
COCCOc1cc2ncnc(Nc3cccc(-c4cn(Cc5ccccc5)nn4)c3)c2cc1OCCOC [Compound 3a, {3-[1-Benzyl-1H-(1,2,3)Triazol-4-yl]-Phenyl}-[6,7-Bis-(2-Methoxy-Ethoxy)-Quinazolin-4-yl]-Amine]	89 to 92	> 50	9.7 ± 0.75	5.27 ± 0.31	> 50	34 ± 2.77	5.85 ± 0.28
COCCOc1cc2ncnc(Nc3cccc(-c4cn(Cc5ccccc5I)nn4)c3)c2cc1OCCOC [Compound 3b, [6,7-Bis-(2-Methoxy-Ethoxy)-Quinazolin-4-yl]-{3-[1-(2-Iodo-Benzyl)-1H-(1,2,3)Triazol-4-yl]-Phenyl}-Amine]	93 to 96	8.05 ± 0.71	17.6 ± 1.37	20.6 ± 1.87	> 50	> 50	9.03 ± 0.82
COCCOc1cc2ncnc(Nc3cccc(-c4cn(Cc5ccccc5Br)nn4)c3)c2cc1OCCOC [Compound 3c, [6,7-Bis-(2-Methoxy-Ethoxy)-Quinazolin-4-yl]-{3-[1-(2-Bromo-Benzyl)-1H-(1,2,3)Triazol-4-yl]-Phenyl}-Amine]	94 to 97	22.4 ± 2.53	> 50	5.47 ± 0.29	> 50	5.72 ± 0.33	5.35 ± 0.34
COCCOc1cc2ncnc(Nc3cccc(-c4cn(-c5cccc(OC)c5)nn4)c3)c2cc1OCCOC [Compound 3e, [6,7-Bis-(2-Methoxy-Ethoxy)-Quinazolin-4-yl]-{3-[1-(3-Methoxy-Phenyl)-1H-(1,2,3)Triazol-4-yl]-Phenyl}-Amine]		> 50	> 50	6.25 ± 0.35	> 50	21.1 ± 1.74	12.6 ± 1.01
COCCOc1cc2ncnc(Nc3cccc(-c4cn(-c5ccccc5F)nn4)c3)c2cc1OCCOC [Compound 3f, [6,7-Bis-(2-Methoxy-Ethoxy)-Quinazolin-4-yl]-{3-[1-(2-Fluoro-Phenyl)-1H-(1,2,3)Triazol-4-yl]-Phenyl}-Amine]	83 to 86	12.1 ± 1.33	> 50	34.2 ± 3.01	17.8 ± 1.61	> 50	> 50
COCCOc1cc2ncnc(Nc3cccc(-c4cn(-c5ccc(F)cc5)nn4)c3)c2cc1OCCOC [Compound 3g, [6,7-Bis-(2-Methoxy-Ethoxy)-Quinazolin-4-yl]-{3-[1-(4-Fluoro-Phenyl)-1H-(1,2,3)Triazol-4-yl]-Phenyl}-Amine]	88 to 91	8.01 ± 0.83	> 50	44.5 ± 4.23	> 50	29.6 ± 2.18	5.46 ± 0.23
COCCOc1cc2ncnc(Nc3cccc(-c4cn(-c5ccccc5Cl)nn4)c3)c2cc1OCCOC [Compound 3h, [6,7-Bis-(2-Methoxy-Ethoxy)-Quinazolin-4-yl]-{3-[1-(2-Chloro-Phenyl)-1H-(1,2,3)Triazol-4-yl]-Phenyl}-Amine]	131 to 134	6.03 ± 0.57	> 50	> 50	> 50	> 50	> 50
COCCOc1cc2ncnc(Nc3cccc(-c4cn(-c5ccccc5)nn4)c3)c2cc1OCCOC [Compound 3o, [6,7-Bis-(2-Methoxy-Ethoxy)-Quinazolin-4-yl]-[3-(1-Phenyl-1H-(1,2,3)Triazol-4-yl)-Phenyl]-Amine]		14.2 ± 1.61	49.5 ± 5.01	46.8 ± 4.63	> 50	> 50	> 50

Continued, in another order:

melting point [°C]	SMILES	IC50 [1] [µM]	IC50 [2] [µM]	IC50 [3] [µM]	IC50 [4] [µM]	IC50 [5] [µM]	IC50 [6] [µM]
93 to 97	COCCOc1cc2ncnc(Nc3cccc(-c4cn(-c5ccccc5Br)nn4)c3)c2cc1OCCOC [Compound 3i, [6,7-Bis-(2-Methoxy-Ethoxy)-Quinazolin-4-yl]-{3-[1-(2-Bromo-Phenyl)-1H-(1,2,3)Triazol-4-yl]-Phenyl}-Amine]	6.23 ± 0.62	> 50	> 50	24.2 ± 2.34	> 50	36.1 ± 3.17
105 to 108	COCCOc1cc2ncnc(Nc3cccc(-c4cn(-c5ccc(Br)cc5)nn4)c3)c2cc1OCCOC [Compound 3j, [6,7-Bis-(2-Methoxy-Ethoxy)-Quinazolin-4-yl]-{3-[1-(4-Bromo-Phenyl)-1H-(1,2,3)Triazol-4-yl]-Phenyl}-Amine]	7.2 ± 0.63	> 50	3.6 ± 0.27	6.27 ± 0.42	4.98 ± 0.17	3.72 ± 0.33
87 to 90	COCCOc1cc2ncnc(Nc3cccc(-c4cn(-c5ccccc5OC)nn4)c3)c2cc1OCCOC [Compound 3k, [6,7-Bis-(2-Methoxy-Ethoxy)-Quinazolin-4-yl]-{3-[1-(2-Methoxy-Phenyl)-1H-[1,2,3]Triazol-4-yl]-Phenyl}-Amine]	10.3 ± 0.96	32 ± 3.25	20 ± 2.25	6.18 ± 0.61	16 ± 1.69	16 ± 1.53
95 to 98	COCCOc1cc2ncnc(Nc3cccc(-c4cn(-c5ccc(C)cc5)nn4)c3)c2cc1OCCOC [Compound 3l, [6,7-Bis-(2-Methoxy-Ethoxy)-Quinazolin-4-yl]-[3-(1-p-Tolyl-1H-(1,2,3)Triazol-4-yl)-Phenyl]-Amine]	4.82 ± 0.32	> 50	> 50	4.61 ± 0.28	10 ± 0.79	11.1 ± 0.94
98 to 101	COCCOc1cc2ncnc(Nc3cccc(-c4cn(-c5cccc([N+](=O)[O-])c5)nn4)c3)c2cc1OCCOC [Compound 3m, [6,7-Bis-(2-Methoxy-Ethoxy)-Quinazolin-4-yl]-{3-[1-(3-Nitro-Phenyl)-1H-(1,2,3)Triazol-4-yl]-Phenyl}-Amine]	> 50	5.85 ± 0.2	4.05 ± 0.21	8.44 ± 0.37	4.27 ± 0.19	3.92 ± 0.15
110 to 114	CCOc1cccc(-n2cc(-c3cccc(Nc4ncnc5cc(OCCOC)c(OCCOC)cc45)c3)nn2)c1 [Compound 3n, [6,7-Bis-(2-Methoxy-Ethoxy)-Quinazolin-4-yl]-{3-[1-(3-Ethoxy-Phenyl)-1H-(1,2,3)Triazol-4-yl]-Phenyl}-Amine]	22.6 ± 2.31	49.7 ± 4.57	12.8 ± 1.25	13.7 ± 1.34	35.4 ± 3.46	> 50
113 to 116	COCCOc1cc2ncnc(Nc3cccc(-c4cn(-c5ccccc5C(F)(F)F)nn4)c3)c2cc1OCCOC [Compound 3p, [6,7-Bis-(2-Methoxy-Ethoxy)-Quinazolin-4-yl]-{3-[1-(2-Trifluoromethyl-Phenyl)-1H-(1,2,3)Triazol-4-yl]-Phenyl}-Amine]	> 50	> 50	24.9 ± 2.16	34.7	> 50	> 50
85 to 88	COCCOc1cc2ncnc(Nc3cccc(-c4cn(-c5ccc(OC)cc5OC)nn4)c3)c2cc1OCCOC [Compound 3q, [6,7-Bis-(2-Methoxy-Ethoxy)-Quinazolin-4-yl]-{3-[1-(2,4-Dimethoxy-Phenyl)-1H-(1,2,3)Triazol-4-yl]-Phenyl}-Amine]	28.1 ± 2.47	12.3 ± 0.93	> 50	> 50	> 50	> 50
100 to 103	COCCOc1cc2ncnc(Nc3cccc(-c4cn(-c5ccc(C)cc5O)nn4)c3)c2cc1OCCOC [Compound 3r, 2-(4-{3-[6,7-Bis-(2-Methoxy-Ethoxy)-Quinazolin-4-Ylamino]-Phenyl}-(1,2,3)Triazol-1-yl)-5-Methyl-Phenol]	> 50	8.74 ± 0.74	8.2 ± 0.67	12.4 ± 1.07	4.32 ± 0.27	5.85 ± 0.52
109 to 112	COCCOc1cc2ncnc(Nc3cccc(-c4cn(CCc5ccccc5)nn4)c3)c2cc1OCCOC [Compound 3s, [6,7-Bis-(2-Methoxy-Ethoxy)-Quinazolin-4-yl]-{3-[1-Phenethyl-1H-(1,2,3)Triazol-4-yl]-Phenyl}-Amine]	33.3 ± 3.43	> 50	> 50	> 50	> 50	> 50

— PMC9065260 (Frontiers in Pharmacology, 2022)
